{"source": "ChEMBL document CHEMBL1201862", "about": "“PubChem BioAssay data set” (2004)", "key": {"Aminopeptidase N": {"molecular_target": "T1, Aminopeptidase N (Plasmodium falciparum FcB1/Columbia, UniProt O96935)", "T1 sequence (O96935 whole entry)": "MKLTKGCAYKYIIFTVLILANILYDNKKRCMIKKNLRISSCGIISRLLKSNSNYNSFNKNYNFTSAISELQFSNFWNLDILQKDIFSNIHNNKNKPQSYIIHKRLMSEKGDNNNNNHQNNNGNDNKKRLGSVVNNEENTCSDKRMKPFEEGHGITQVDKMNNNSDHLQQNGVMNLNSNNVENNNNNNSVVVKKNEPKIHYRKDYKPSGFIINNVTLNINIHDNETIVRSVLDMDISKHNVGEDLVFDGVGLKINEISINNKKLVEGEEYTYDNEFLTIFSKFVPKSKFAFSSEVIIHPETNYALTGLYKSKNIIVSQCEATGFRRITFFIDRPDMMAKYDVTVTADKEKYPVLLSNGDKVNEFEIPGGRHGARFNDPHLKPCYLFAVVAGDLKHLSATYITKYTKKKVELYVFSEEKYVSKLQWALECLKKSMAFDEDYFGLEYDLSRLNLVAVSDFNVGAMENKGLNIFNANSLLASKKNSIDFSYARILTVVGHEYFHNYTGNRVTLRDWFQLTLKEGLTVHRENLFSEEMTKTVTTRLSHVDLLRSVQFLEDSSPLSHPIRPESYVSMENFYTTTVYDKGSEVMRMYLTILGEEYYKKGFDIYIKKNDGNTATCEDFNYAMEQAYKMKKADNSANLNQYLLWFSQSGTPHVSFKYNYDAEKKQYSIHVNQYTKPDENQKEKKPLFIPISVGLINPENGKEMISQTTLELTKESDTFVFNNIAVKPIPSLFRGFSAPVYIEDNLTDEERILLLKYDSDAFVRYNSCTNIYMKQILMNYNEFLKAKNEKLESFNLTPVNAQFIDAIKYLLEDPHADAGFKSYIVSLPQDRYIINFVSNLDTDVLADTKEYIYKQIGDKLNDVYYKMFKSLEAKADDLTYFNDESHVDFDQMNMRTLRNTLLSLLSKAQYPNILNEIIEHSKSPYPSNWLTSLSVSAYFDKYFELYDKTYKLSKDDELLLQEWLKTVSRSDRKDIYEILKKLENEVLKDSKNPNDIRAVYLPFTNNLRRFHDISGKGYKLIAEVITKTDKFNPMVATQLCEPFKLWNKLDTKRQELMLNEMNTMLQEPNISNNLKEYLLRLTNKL", "assay": "P. falciparum M1AAP inhibitors, biochemical, fluorogenic H-Leu-NHMec substrate, 1536-well (AID 1445)", "set-up": "species or system Plasmodium falciparum 3D7, 3D7"}, "[1]": {"assay": "cytotoxicity in HEK-293T cells, dose response, cytotoxicity control for TCR NF-kB inhibitor project, luminescence, T-cell screen hits (AID 489026);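 also: cells exposed to compound about 14 hours before the viability readout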", "format": "functional, cell-based"}, "[2]": {"assay": "cytotoxicity in KRAS-transformed pancreatic duct cells, primary screen, cell-based, fluorescence, HTS (AID 431);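 also: cell line used: HPDE-C7K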", "format": "functional", "settings": "Homo sapiens"}, "[3]": {"assay": "Luminescence Cell-Based Dose Response HTS to Identify Inhibitors of 5'UTR Stem-Loop Driven Prion Protein mRNA Translation in H4 Neuroglioblastoma Cells. [Related pubchem assays: 1827 (Project Summary), 1813 (Primary HTS)]", "format": "functional"}, "[4]": {"assay": "inhibitors of SNCA 5'UTR-driven reporter translation, confirmation, H4 neuroglioma cells, luminescence (AID 1988)", "format": "functional, cell-based"}, "[5]": {"assay": "cytotoxicity in HPDE-C7 cells, cell-based, fluorescence, HTS (AID 430)", "format": "functional", "settings": "Homo sapiens"}, "[6]": {"assay": "inhibitors of firefly luciferase expression or activity, dose response, H4 neuroglioma cells, luminescence (AID 1990)", "format": "functional, cell-based"}, "[7]": {"molecular_target": "Voltage-dependent T-type calcium channel subunit alpha-1H (Homo sapiens, UniProt O95180)", "sequence (O95180 whole entry)": "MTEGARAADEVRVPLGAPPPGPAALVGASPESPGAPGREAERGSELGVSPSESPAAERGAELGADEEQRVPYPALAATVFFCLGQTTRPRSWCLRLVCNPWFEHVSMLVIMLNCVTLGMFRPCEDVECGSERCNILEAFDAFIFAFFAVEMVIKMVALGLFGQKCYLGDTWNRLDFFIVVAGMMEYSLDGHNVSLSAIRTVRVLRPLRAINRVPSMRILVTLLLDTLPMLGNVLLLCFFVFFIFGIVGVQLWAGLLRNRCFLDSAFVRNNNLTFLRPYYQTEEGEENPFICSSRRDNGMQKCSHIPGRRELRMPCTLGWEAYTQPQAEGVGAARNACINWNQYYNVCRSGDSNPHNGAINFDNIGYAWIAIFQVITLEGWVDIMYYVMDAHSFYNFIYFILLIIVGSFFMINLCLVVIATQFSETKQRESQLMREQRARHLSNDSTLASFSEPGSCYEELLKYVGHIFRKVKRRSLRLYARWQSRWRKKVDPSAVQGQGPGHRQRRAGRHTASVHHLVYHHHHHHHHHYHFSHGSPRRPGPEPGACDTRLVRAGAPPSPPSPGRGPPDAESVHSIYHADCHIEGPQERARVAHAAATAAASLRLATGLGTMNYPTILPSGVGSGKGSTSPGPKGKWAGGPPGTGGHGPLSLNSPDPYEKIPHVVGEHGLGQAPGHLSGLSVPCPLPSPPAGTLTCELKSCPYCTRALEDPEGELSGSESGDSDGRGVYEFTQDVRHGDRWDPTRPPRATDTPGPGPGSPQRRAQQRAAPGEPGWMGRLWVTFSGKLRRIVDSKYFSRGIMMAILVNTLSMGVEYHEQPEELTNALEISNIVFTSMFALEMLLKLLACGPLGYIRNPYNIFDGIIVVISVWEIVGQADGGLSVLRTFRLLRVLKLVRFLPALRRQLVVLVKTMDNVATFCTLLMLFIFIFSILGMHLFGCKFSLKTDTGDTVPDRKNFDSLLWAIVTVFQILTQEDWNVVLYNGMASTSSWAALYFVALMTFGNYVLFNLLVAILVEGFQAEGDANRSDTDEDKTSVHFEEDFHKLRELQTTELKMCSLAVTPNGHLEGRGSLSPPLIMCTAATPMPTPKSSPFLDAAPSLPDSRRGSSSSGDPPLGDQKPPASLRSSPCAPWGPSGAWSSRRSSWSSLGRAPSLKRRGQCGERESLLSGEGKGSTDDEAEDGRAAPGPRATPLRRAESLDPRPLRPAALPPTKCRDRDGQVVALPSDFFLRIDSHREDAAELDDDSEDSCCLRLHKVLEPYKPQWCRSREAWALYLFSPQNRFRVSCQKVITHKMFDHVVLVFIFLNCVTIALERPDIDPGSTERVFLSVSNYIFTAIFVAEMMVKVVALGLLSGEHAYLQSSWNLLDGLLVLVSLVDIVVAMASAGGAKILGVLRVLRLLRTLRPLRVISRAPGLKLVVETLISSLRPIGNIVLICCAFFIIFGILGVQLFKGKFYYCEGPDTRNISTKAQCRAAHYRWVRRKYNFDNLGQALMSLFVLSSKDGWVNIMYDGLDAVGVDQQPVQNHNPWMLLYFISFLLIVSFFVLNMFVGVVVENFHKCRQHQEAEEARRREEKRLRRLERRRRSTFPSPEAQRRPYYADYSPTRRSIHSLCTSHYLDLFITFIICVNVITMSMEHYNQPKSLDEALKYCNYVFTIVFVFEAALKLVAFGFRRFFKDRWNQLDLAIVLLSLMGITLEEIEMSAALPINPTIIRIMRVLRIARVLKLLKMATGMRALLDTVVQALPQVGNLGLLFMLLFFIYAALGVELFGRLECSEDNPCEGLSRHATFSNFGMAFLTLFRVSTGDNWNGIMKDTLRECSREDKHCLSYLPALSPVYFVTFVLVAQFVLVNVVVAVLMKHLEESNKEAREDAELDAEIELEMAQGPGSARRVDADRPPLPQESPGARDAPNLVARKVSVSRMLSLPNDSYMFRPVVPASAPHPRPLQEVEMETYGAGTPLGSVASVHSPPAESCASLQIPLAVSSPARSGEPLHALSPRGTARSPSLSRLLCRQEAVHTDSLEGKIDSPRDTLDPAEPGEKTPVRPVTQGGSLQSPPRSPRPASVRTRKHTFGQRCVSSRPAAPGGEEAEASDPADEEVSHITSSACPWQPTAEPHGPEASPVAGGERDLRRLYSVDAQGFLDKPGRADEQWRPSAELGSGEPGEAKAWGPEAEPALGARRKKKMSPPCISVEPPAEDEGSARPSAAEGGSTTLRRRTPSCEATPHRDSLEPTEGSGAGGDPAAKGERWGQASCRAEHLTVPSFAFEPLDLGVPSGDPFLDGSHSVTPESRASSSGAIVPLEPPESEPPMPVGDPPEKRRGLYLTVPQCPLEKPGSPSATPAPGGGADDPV", "format": "functional"}, "Cytochrome P450 2C9": {"molecular_target": "Cytochrome P450 2C9 (Homo sapiens, UniProt P11712)", "sequence (P11712 whole entry)": "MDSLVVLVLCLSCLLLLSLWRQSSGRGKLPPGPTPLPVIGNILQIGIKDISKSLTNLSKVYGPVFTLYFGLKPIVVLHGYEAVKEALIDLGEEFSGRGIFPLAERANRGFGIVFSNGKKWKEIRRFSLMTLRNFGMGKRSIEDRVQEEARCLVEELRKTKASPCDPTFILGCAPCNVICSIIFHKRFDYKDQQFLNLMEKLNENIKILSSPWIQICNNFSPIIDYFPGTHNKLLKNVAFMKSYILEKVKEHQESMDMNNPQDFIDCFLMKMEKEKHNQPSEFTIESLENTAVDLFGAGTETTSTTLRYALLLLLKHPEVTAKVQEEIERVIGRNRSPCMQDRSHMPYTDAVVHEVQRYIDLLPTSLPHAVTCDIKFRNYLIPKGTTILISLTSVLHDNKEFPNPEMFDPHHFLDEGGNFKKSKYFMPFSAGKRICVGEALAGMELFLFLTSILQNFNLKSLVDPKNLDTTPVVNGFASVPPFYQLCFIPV"}, "[8]": {"molecular_target": "Luciferin 4-monooxygenase (Photinus pyralis, UniProt P08659)", "sequence (P08659 whole entry)": "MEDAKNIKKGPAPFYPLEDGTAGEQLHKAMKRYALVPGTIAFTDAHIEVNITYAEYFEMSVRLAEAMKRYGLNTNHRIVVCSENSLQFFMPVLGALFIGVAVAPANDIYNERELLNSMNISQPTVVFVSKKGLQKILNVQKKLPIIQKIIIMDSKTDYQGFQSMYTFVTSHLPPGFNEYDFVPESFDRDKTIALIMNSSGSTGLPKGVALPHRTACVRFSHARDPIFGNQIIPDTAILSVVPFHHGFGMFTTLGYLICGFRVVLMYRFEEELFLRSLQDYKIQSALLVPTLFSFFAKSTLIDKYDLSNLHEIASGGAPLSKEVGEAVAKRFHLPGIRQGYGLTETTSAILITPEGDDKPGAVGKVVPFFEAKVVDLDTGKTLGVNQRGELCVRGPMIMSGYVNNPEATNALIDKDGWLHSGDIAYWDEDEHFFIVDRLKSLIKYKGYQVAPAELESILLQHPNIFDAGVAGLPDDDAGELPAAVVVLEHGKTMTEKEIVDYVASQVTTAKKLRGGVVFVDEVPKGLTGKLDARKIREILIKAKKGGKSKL", "assay": "firefly luciferase enzyme inhibitors, dose response, biochemical, luminescence (AID 1891)"}, "[9]": {"molecular_target": "DNA dC->dU-editing enzyme APOBEC-3A (Homo sapiens, UniProt P31941)", "sequence (P31941 whole entry)": "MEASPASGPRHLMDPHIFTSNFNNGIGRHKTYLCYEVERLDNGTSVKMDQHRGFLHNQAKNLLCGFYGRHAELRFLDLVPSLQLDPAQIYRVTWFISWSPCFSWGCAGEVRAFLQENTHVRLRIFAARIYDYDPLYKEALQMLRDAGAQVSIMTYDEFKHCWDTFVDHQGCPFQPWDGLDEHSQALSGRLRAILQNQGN", "assay": "Dose Response confirmation of small molecule APOBEC3A DNA Deaminase Inhibitors via a fluorescence-based single-stranded DNA deaminase assay. [Related pubchem assays (depositor defined):AID493011, AID493024]", "format": "functional"}, "[10]": {"molecular_target": "DNA dC->dU-editing enzyme APOBEC-3G (Homo sapiens, UniProt Q9HC16)", "sequence (Q9HC16 whole entry)": "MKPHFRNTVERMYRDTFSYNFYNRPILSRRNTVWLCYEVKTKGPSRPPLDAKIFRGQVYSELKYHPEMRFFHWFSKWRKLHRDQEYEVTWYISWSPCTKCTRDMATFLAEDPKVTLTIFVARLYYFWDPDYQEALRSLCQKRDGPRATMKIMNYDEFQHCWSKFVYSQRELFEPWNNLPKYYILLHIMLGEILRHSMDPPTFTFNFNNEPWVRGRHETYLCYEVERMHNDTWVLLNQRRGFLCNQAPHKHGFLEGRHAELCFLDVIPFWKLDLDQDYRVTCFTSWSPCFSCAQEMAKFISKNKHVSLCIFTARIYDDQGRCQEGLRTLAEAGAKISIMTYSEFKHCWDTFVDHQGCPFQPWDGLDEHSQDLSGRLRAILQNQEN", "format": "functional"}, "[11]": {"assay": "Luminescence Cell-Based Dose Confirmation HTS to Identify Inhibitors of Platelet Dense Granule Release. [Related pubchem assays: 1663 (Primary HTS), 1678 (Summary of Project)]", "format": "functional"}, "[12]": {"molecular_target": "T2, Microphthalmia-associated transcription factor (Homo sapiens, UniProt O75030)", "T2 sequence (O75030 whole entry)": "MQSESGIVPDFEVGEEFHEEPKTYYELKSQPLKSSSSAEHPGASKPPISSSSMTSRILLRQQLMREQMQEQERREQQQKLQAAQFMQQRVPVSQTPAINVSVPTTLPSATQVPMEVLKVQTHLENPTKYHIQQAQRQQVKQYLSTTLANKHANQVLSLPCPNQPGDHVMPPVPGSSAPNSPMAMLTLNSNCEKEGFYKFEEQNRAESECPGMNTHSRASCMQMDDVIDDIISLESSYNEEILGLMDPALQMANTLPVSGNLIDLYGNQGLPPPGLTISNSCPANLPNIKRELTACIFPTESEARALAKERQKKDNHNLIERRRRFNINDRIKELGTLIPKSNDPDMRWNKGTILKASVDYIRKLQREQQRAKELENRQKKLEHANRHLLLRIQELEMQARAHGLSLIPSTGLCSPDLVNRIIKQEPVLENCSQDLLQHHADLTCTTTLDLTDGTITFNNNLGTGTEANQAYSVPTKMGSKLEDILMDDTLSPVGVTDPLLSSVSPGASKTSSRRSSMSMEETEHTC", "assay": "TRPM1 promoter luciferase signal decrease, dose response, MITF inhibitor project, cell-based, SK-MEL-5, cherry-picked, set 3 (AID 493073)", "format": "functional"}, "[13]": {"molecular_target": "T3, Ubiquitin-conjugating enzyme E2 N (Homo sapiens, UniProt P61088)", "T3 sequence (P61088 whole entry)": "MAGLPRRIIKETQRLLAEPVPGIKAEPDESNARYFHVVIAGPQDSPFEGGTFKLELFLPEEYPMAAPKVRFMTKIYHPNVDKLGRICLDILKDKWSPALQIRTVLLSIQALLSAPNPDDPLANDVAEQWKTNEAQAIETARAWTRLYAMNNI", "format": "functional"}, "HEK293": {"tested_on": "HEK293", "assay": "inhibitors of LMP1-driven NF-kB reporter, dose response, cell-based, HEK293, luciferase, cherry-pick (AID 588343)", "format": "functional", "settings": "Homo sapiens"}, "INS1": {"tested_on": "INS1", "assay": "beta cell apoptosis inhibitors, cytokine rescue, dose response, luminescence, retest (AID 449756);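 also: cell death triggered by IL-1 beta plus TNF-alpha plus IFN-gamma mixture; protective hits raise ATP signal compared with cytokine alone wells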", "format": "functional, cell-based", "settings": "Rattus norvegicus"}}, "note": "Activity calls are given as the source filed them.", "data": [{"smiles": "CC(c1nc2ccccc2o1)N1C(=O)c2ccccc2C1=O", "note": "(centres undefined)", "values": [{"measurement": "IC50", "setting": "Aminopeptidase N", "result": "79.5 µM (active)"}]}, {"smiles": "COC(=O)c1[nH]c2ccc(Br)cc2c1NC(=O)CN1CCN(C2CCCCC2)CC1", "values": [{"measurement": "IC50", "setting": "[1]", "result": "22.4 µM (inactive)"}, {"measurement": "EC50", "setting": "[2]", "result": "> 20 µM (not active)"}, {"measurement": "EC50", "setting": "[3]", "result": "12.9 µM (active)"}, {"measurement": "EC50", "setting": "[4]", "result": "7.79 µM (active)"}, {"measurement": "EC50", "setting": "[5]", "result": "> 20 µM (not active)"}, {"measurement": "EC50", "setting": "[6]", "result": "12.2 µM (active)"}]}, {"smiles": "COc1cccc(CNC(=O)C2CCN(Cc3cnn(-c4ccccc4)c3-n3cccc3)CC2)c1", "values": [{"measurement": "EC50", "setting": "[7]", "result": "9.81 µM (active)"}]}, {"smiles": "COc1ccccc1CC(=N)NOC(=O)c1ccc(C)c([N+](=O)[O-])c1", "values": [{"measurement": "AC50", "setting": "Cytochrome P450 2C9", "result": "inconclusive"}]}, {"smiles": "COC(=O)c1[nH]c2ccc(Cl)cc2c1NC(=O)CN1CCc2cc(OC)c(OC)cc2C1", "values": [{"measurement": "EC50", "setting": "[8]", "result": "> 112 µM (not active)"}, {"measurement": "IC50", "setting": "[9]", "result": "3.18 µM (active)"}, {"measurement": "IC50", "setting": "[10]", "result": "7.77 µM (active)"}, {"measurement": "EC50", "setting": "[11]", "result": "> 112 µM (not active)"}]}, {"smiles": "COC(=O)C1=C(C)N(Cc2ccccc2)C(NCC(C)C)=N[C@H]1c1cccc(C(F)(F)F)c1", "values": [{"measurement": "IC50", "setting": "[9]", "result": "2.88 µM (active)"}, {"measurement": "AC50", "setting": "[12]", "result": "15 µM (active)"}, {"measurement": "IC50", "setting": "[10]", "result": "4.22 µM (active)"}, {"measurement": "IC50", "setting": "[13]", "result": "> 20 µM (inactive)"}]}, {"smiles": "O=C1C=Cc2cccc3ccc(O)c1c23", "values": [{"measurement": "AC50", "setting": "HEK293", "result": "18.1 µM (active)"}]}, {"smiles": "COC(=O)[C@@]1(Cc2ccccc2)[C@H]2C(=O)N(Cc3ccccc3)C(=O)[C@H]2[C@H]2CN=C(SCc3ccc(Cl)cc3)N21", "values": [{"measurement": "AC50", "setting": "HEK293", "result": "6.5 µM (active)"}]}, {"smiles": "CCN(c1ccccc1)S(=O)(=O)c1ccc(C(=O)NC2CCN(Cc3ccccc3)CC2)cc1", "values": [{"measurement": "AC50", "setting": "INS1", "result": "2.31 µM (active)"}, {"measurement": "IC50", "setting": "[1]", "result": "> 80 µM (inactive)"}]}, {"smiles": "Cn1nc(C(F)(F)F)c(/C=N/OC(=O)c2ccccc2)c1Cl", "values": [{"measurement": "AC50", "setting": "Cytochrome P450 2C9", "result": "inactive"}]}, {"smiles": "CC/N=c1\\sc2ccccc2n1CC(O)COc1ccccc1", "note": "(centres undefined)", "values": [{"measurement": "EC50", "setting": "[7]", "result": "29.1 µM (active)"}]}, {"smiles": "CCN(CC)C(=O)C(=O)N/N=C/c1cccc(Br)c1", "values": [{"measurement": "AC50", "setting": "Cytochrome P450 2C9", "result": "inconclusive"}]}]}
